Reference: patent US20250313546A1, “NUCLEIC ACID BINDERS” (UNIVERSITY OF STRATHCLYDE, priority 2022, published 2025)
Converted amounts (≈) assume the structure as drawn. Read-outs that look alike come from different tables or passages of the source.

Tests used:
[1] = tested on: C. guilliiermondii; assay: Expanded set of yeasts, MIC broth microdilution (CLSI); assay type: cell-based; settings: MIC at 50% inhibition
[2] = tested on: Rhizopus arrhizus (NEQAS12.35321); settings: read-out: MIC99 Rhizopus arrhizus
Experimental: (§2) The Minimum Inhibitory Concentration (MIC, at 99% inhibition) of the compounds was determined using the broth microdilution method as recommended by EUCAST (EUCAST Definitive Document E.DEF 9.3.2, Method for the determination of broth dilution minimum inhibitory concentrations of antifungal agents for conidia forming moulds and EUCAST Definitive Document E.DEF 7.3.2 Method for the determination of broth dilution minimum inhibitory concentrations of antifungal agents for yeasts).

[3] = tested on: Candida auris (H.17.157); settings: Candidozyma auris, read-out: MIC99 Candida auris
Experimental: as §2

[4] = tested on: C. albicans; assay: Expanded set of yeasts, MIC broth microdilution (CLSI); assay type: cell-based; settings: MIC at 50% inhibition; for MIC50: Candida albicans
[5] = tested on: Staphylococcus aureus (ATCC 43300); assay: Antibacterial MIC, broth microdilution (CLSI); assay type: cell-based; settings: Staphylococcus aureus, ATCC43300; read-out: MIC80 S. aureus
[6] = tested on: C. neoformans (F10025); settings: Cryptococcus neoformans, read-out: MIC99 C. neoformans
[7] = tested on: PolyAU double stranded RNA; assay: Fluorescence intercalator displacement (FID) assay, SYBR-safe probe; settings: 20 μM compound, 30° C., lower % = stronger binding
Method in brief: (§1)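 Compound at 20 μM mixed with 3.76 ng/mL polyAU dsRNA or salmon genomic dsDNA and 12500-fold diluted SybrSafe in 1 mM phosphate buffer pH 7.4, then heated to 30 °C and fluorescence read. Reduction is expressed as normalised %, with nucleic acid plus probe as maximum and probe alone as minimum.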

[8] = tested on: Genomic double stranded DNA (salmon); assay: as above; settings: 20 μM compound, 30° C., lower % = stronger binding
Method in brief: as §1

[9] = tested on: Scedosporium prolificans (F2746); settings: Lomentospora prolificans, read-out: MIC99 Scedosporium prolificans
Experimental: as §2

[10] = tested on: Blastomyces dermatitidis; assay: Expanded set of filamentous fungi, MIC broth microdilution (CLSI); assay type: cell-based
[11] = tested on: Fusarium solani; assay: as above; assay type: cell-based; settings: MIC at 50% inhibition
[12] = tested on: Scedosporium spp.; assay: as above; assay type: cell-based
[13] = tested on: Paecilomyces variotii; assay: as above; assay type: cell-based; settings: isolate MYA-3630, MIC at 50% inhibition
[14] = tested on: Enterococcus faecalis (ATCC 51299); assay: Antibacterial MIC, broth microdilution (CLSI); assay type: cell-based; settings: Enterococcus faecalis, ATCC51299; read-out: MIC80 E. faecalis
[15] = tested on: Candida glabrata (ACPF3309); settings: Nakaseomyces glabratus, read-out: MIC99 Candida glabrata
Experimental: as §2

[16] = tested on: Fusarium oxysporum; assay: Expanded set of filamentous fungi, MIC broth microdilution (CLSI); assay type: cell-based; settings: MIC at 50% inhibition
[17] = tested on: Fusarium oxysporum (F7098); settings: read-out: MIC99 Fusarium oxysporum
Experimental: as §2

[18] = tested on: Lomentospora prolificans; assay: Expanded set of filamentous fungi, MIC broth microdilution (CLSI); assay type: cell-based; settings: isolate S2, MIC at 50% inhibition
[19] = tested on: Aspergillus fumigatus; assay: as above; assay type: cell-based
[20] = tested on: Escherichia coli (ATCC 25922); assay: Antibacterial MIC, broth microdilution (CLSI); assay type: cell-based; settings: Escherichia coli, ATCC25922; read-out: MIC80 E. coli
[21] = tested on: Candida parapsilosis; assay: Expanded set of yeasts, MIC broth microdilution (CLSI); assay type: cell-based; settings: MIC at 50% inhibition; for MIC50: Lodderomyces parapsilosis
[22] = tested on: Rhizopus arrhizus; assay: Expanded set of filamentous fungi, MIC broth microdilution (CLSI); assay type: cell-based

C/N=C(\CCNC(=O)c1cc(NC(=O)c2cc(NC(=O)c3ccc(/C=C/c4ccc(N(C)C)cc4)nc3)cn2C)cn1C)NC [Ia8, 6-((E)-4-(dimethylamino)styryl)-N-(1-methyl-5-((1-methyl-5-(((E)-3-(methylamino)-3-(methylimino)propyl)carbamoyl)-1H-pyrrol-3-yl)carbamoyl)-1H-pyrrol-3-yl)nicotinamide]
MIC50 ([1]; isolate Cgui1): 1 to 8 mg/L (≈ 1.64 to 13.1 µM)
MIC50 C. guilliiermondii ([1]; isolate Cgui2): ** (** means 1 μg/mL < MIC50 <= 8 μg/mL)
MIC50 C. guilliiermondii ([1]; isolate Cgui3): ** (** means 1 μg/mL < MIC50 <= 8 μg/mL)
MIC99 [2]: 5 to 25 mg/L (≈ 8.2 to 41 µM)
MIC99 [3]: > 50 mg/L
MIC50 ([4]; isolate CA3): 1 to 8 mg/L (≈ 1.64 to 13.1 µM)
MIC50 ([4]; isolate SC5314): 1 to 8 mg/L (≈ 1.64 to 13.1 µM)
MIC50 C. albicans ([4]; isolate CA90028): ** (** means 1 μg/mL < MIC50 <= 8 μg/mL)
MIC80 [5]: 5 to 25 µM (≈ 3.05 to 15.2 µg/mL)
MIC99 [6]: 5 to 25 mg/L (≈ 8.2 to 41 µM)
% Normalised Fluorescence with polyAU RNA [7]: 9%
% Normalised Fluorescence with gDNA [8]: 4%
MIC99 [9]: 5 to 25 mg/L (≈ 8.2 to 41 µM)
MIC50 ([10]; isolate BD1, MIC at 50% inhibition): 1 to 8 mg/L (≈ 1.64 to 13.1 µM)
MIC50 ([10]; isolate BD2, MIC at 50% inhibition): 1 to 8 mg/L (≈ 1.64 to 13.1 µM)
MIC50 ([10]; isolate BD3, MIC at 50% inhibition): 1 to 8 mg/L (≈ 1.64 to 13.1 µM)
MIC50 ([11]; Fusarium solani, isolate F4): ≤ 1 mg/L
MIC50 Fusarium solani ([11]; isolate DI19-284): *** (*** means MIC50 <= 1 μg/mL)
MIC50 ([12]; isolate S1, MIC at 50% inhibition): 1 to 8 mg/L (≈ 1.64 to 13.1 µM)
MIC50 ([12]; isolate S3, MIC at 50% inhibition): 1 to 8 mg/L (≈ 1.64 to 13.1 µM)
MIC50 [13]: 1 to 8 mg/L (≈ 1.64 to 13.1 µM)
MIC80 [14]: 25 to 100 µM (≈ 15.2 to 61 µg/mL)
MIC99 [15]: 5 to 25 mg/L (≈ 8.2 to 41 µM)
MIC50 ([16]; Fusarium oxysporum, isolate F2): ≤ 1 mg/L
MIC50 Fusarium oxysporum ([16]; isolate F3): *** (*** means MIC50 <= 1 μg/mL)
MIC99 [17]: < 5 mg/L
MIC50 [18]: 1 to 8 mg/L (≈ 1.64 to 13.1 µM)
MIC50 ([19]; isolate AF293, MIC at 50% inhibition): 1 to 8 mg/L (≈ 1.64 to 13.1 µM)
MIC50 ([19]; isolate DI15-106, MIC at 50% inhibition): 1 to 8 mg/L (≈ 1.64 to 13.1 µM)
MIC50 ([19]; isolate DI15-116, MIC at 50% inhibition): 1 to 8 mg/L (≈ 1.64 to 13.1 µM)
MIC50 ([19]; isolate DI19-187, MIC at 50% inhibition): 1 to 8 mg/L (≈ 1.64 to 13.1 µM)
MIC50 ([19]; isolate DI19-230, MIC at 50% inhibition): 1 to 8 mg/L (≈ 1.64 to 13.1 µM)
MIC50 ([19]; isolate DI19-231, MIC at 50% inhibition): 1 to 8 mg/L (≈ 1.64 to 13.1 µM)
MIC50 ([19]; isolate DI19-232, MIC at 50% inhibition): 1 to 8 mg/L (≈ 1.64 to 13.1 µM)
MIC50 ([19]; isolate DI19-233, MIC at 50% inhibition): 1 to 8 mg/L (≈ 1.64 to 13.1 µM)
MIC50 ([19]; isolate DI19-234, MIC at 50% inhibition): 1 to 8 mg/L (≈ 1.64 to 13.1 µM)
MIC50 ([19]; isolate DI19-236, MIC at 50% inhibition): 1 to 8 mg/L (≈ 1.64 to 13.1 µM)
MIC50 ([19]; isolate DI19-237, MIC at 50% inhibition): 1 to 8 mg/L (≈ 1.64 to 13.1 µM)
MIC50 ([19]; isolate DI20-95, MIC at 50% inhibition): 1 to 8 mg/L (≈ 1.64 to 13.1 µM)
MIC50 ([19]; isolate DI20-103, MIC at 50% inhibition): 1 to 8 mg/L (≈ 1.64 to 13.1 µM)
MIC80 [20]: > 100 µM
MIC50 ([21]; ATCC22019, isolate ATCC 22019, read-out: MIC50 Candida parapsilosis): 1 to 8 mg/L (≈ 1.64 to 13.1 µM)
MIC50 ([21]; isolate CP1, read-out: MIC50 C. parapsilosis): 1 to 8 mg/L (≈ 1.64 to 13.1 µM)
MIC50 C. parapsilosis ([21]; isolate CP2): ** (** means 1 μg/mL < MIC50 <= 8 μg/mL)
MIC50 C. parapsilosis ([21]; isolate CP3): ** (** means 1 μg/mL < MIC50 <= 8 μg/mL)
MIC50 ([22]; isolate 99-880, MIC at 50% inhibition): 1 to 8 mg/L (≈ 1.64 to 13.1 µM)
MIC50 ([22]; isolate 99-892, MIC at 50% inhibition): 1 to 8 mg/L (≈ 1.64 to 13.1 µM)
MIC50 ([22]; isolate RA3, MIC at 50% inhibition): 1 to 8 mg/L (≈ 1.64 to 13.1 µM)
